For series [1], the target named is T1, MDR1 (ABCB1, P-glycoprotein) (Homo sapiens, UniProt P08183). The experiment in a line: Activity at human MDR1 expressed in pig LLC-PK1 cells assessed as apparent permeability at 10 umol/L after 2 hrs by LC-MS/MS analysis. Format: ADME, cell-based.
For a further series, the system named is MDA-MB-231. The experiment in a line: Growth inhibition of human MDA-MB-231 cells after 72 hrs by CellTiter-Glo assay. The class given is functional. To be noted: MDA-MB-231, 72 h. (Cellular ATP, detected with luciferase, serves as a proxy for viable cell number.)
Series [2] deals with T1, MDR1 (ABCB1, P-glycoprotein). The experiment in a line: Activity at human MDR1 expressed in pig LLC-PK1 cells assessed as efflux ratio of permeability from basolateral to apical side over apical to basolateral side at 10 umol/L after 2 hrs by LC-MS/MS analysis. The class given is ADME, cell-based.

As usually defined, the Papp is a coefficient for how fast a substance crosses the barrier. In general, GI50 refers to the concentration that inhibits growth by half. A lower GI50 goes with greater sensitivity of the cells. What is called efflux ratio is the permeability from basolateral to apical divided by that in the opposite direction, in the common usage.

Molecules are shown by their SMILES.

T1 sequence (P08183 whole entry): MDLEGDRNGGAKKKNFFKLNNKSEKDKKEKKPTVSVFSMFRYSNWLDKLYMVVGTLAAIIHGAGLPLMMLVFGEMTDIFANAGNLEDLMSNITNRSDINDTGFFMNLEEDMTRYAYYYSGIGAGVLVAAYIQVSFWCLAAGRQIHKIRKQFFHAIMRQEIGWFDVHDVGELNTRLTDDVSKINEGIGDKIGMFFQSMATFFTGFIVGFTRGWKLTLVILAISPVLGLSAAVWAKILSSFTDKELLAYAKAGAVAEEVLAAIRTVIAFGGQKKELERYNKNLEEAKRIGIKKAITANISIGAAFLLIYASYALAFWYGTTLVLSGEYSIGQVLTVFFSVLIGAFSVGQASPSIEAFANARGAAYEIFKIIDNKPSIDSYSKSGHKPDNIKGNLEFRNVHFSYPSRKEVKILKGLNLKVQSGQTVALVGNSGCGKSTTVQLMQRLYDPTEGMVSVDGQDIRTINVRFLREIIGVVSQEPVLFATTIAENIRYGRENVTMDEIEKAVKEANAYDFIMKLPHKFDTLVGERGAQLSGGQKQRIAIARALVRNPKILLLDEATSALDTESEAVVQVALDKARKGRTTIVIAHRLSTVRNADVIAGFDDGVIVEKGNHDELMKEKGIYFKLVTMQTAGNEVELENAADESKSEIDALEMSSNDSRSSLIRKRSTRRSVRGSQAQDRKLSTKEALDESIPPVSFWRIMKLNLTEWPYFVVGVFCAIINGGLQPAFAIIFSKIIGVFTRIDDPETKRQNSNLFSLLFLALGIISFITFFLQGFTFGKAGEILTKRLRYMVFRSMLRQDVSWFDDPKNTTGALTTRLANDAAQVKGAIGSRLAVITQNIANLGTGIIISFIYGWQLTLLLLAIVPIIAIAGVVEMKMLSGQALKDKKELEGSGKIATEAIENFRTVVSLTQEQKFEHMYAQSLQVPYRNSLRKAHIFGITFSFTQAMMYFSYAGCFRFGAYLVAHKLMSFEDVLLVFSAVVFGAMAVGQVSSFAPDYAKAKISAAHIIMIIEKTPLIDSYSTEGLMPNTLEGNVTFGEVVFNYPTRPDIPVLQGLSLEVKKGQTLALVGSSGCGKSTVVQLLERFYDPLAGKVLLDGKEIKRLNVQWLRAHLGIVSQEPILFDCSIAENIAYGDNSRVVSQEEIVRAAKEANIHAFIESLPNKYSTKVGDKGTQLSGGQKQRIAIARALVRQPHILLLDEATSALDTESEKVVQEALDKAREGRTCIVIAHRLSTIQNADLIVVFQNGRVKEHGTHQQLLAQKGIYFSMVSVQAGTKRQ

As to `CC[C@H](NC)C(=O)N[C@H](C(=O)N1C[C@@H]2Cc3ccccc3N2C[C@H]1C(=O)N[C@@H]1CCOc2ccccc21)C1CCCCC1`, in series [1], the Papp at 2 h, 10 µM amounted to 25 nm/s. Also, in the series on MDA-MB-231, it took 1.8 nM to inhibit growth by half (GI50).
On to `CN[C@@H](C)C(=O)N[C@H](C(=O)N1C[C@H]2Cc3ccccc3N2C[C@H]1C(=O)N[C@@H]1CCOc2ccccc21)C1CCCCC1`, for which, in series [1], the Papp at 2 h, 10 µM came to 41 nm/s. In the series with MDA-MB-231, this compound yielded a GI50 of 15 nM.
As for `CC[C@H](NC)C(=O)N[C@H](C(=O)N1C[C@@H]2Cc3cc(C#N)ccc3N2C[C@H]1C(=O)N[C@@H]1CCOc2ccccc21)C1CCCCC1`, in series [1], the Papp at 2 h, 10 µM came out at 14 nm/s. This compound also registered a GI50 in the series on MDA-MB-231 of 1.9 nM.
As to `CC[C@H](NC)C(=O)N[C@H](C(=O)N1C[C@@H]2Cc3cc(Cl)ccc3N2C[C@H]1C(=O)N[C@@H]1CCOc2ccccc21)C1CCCCC1`, the Papp at 2 h, 10 µM in series [1] amounted to 64 nm/s.
As to `CN[C@@H](C)C(=O)N[C@H](C(=O)N1C[C@H]2CCCN2C[C@H]1C(=O)N[C@@H]1CCOc2ccccc21)C1CCCCC1`, the Papp at 2 h, 10 µM in series [1] was determined as 5 nm/s. This compound also gave a GI50 with MDA-MB-231 of 5.7 nM.
Consider `CN[C@@H](C)C(=O)N[C@H](C(=O)N1C[C@@H]2CCCN2C[C@H]1C(=O)N[C@@H]1CCOc2ccccc21)C1CCCCC1`, for which, in series [1], the Papp at 2 h, 10 µM worked out at 3 nm/s. In the series on MDA-MB-231, the GI50 was found to be 13 nM.
`CCO[C@@H]1C[C@@H]2CN(C(=O)[C@@H](NC(=O)[C@H](C)NC)C3CCC(F)(F)CC3)[C@H](C(=O)N[C@@H]3CCOc4ccccc43)CN2C1`: the efflux ratio at 2 h, 10 µM in series [2] came out at 24. Also, the Papp at 2 h, 10 µM in series [1] is 1 nm/s.
With `CC[C@H](NC)C(=O)N[C@H](C(=O)N1C[C@H]2CCCN2C[C@H]1C(=O)N[C@@H]1CCOc2ccccc21)C1CCCCC1`, the GI50 in the series with MDA-MB-231 is 4.6 nM.
For `CC[C@H](NC)C(=O)N[C@H](C(=O)N1C[C@@H]2Cc3cc(Cl)cc(Cl)c3N2C[C@H]1C(=O)N[C@@H]1CCOc2ccccc21)C1CCCCC1`, the Papp at 2 h, 10 µM in series [1] stood at 75 nm/s. Further, it took 5.9 nM to inhibit growth with MDA-MB-231 by half (GI50).
In the case of `CC[C@H](NC)C(=O)N[C@H](C(=O)N1C[C@H]2Cc3ccccc3N2C[C@H]1C(=O)N[C@@H]1CCOc2ccccc21)C1CCCCC1`, the Papp at 2 h, 10 µM in series [1] was determined as 86 nm/s. The compound further had a GI50 in the series on MDA-MB-231 of 4.4 nM.
